According to PMC10056611, “Synthesis and Biological Evaluation of 3-Amino-4,4-Dimethyl Lithocholic Acid Derivatives as Novel, Selective, and Cellularly Active Allosteric SHP1 Activators” (Molecules, 2023):
“And” between values parts separate entries of the source, which are not always exact repeats. Identical values can stand only once.

Experiments:
[1] = biological target: SHP1 (Homo sapiens, UniProt P29350); test: SHP1 enzyme assay (DiFMUP fluorogenic substrate), activation; format: biochemical; settings: DiFMUP assay; for EC50 / Maximum Activation Fold: mean ± SEM
Sequence of SHP1 (P29350 whole entry): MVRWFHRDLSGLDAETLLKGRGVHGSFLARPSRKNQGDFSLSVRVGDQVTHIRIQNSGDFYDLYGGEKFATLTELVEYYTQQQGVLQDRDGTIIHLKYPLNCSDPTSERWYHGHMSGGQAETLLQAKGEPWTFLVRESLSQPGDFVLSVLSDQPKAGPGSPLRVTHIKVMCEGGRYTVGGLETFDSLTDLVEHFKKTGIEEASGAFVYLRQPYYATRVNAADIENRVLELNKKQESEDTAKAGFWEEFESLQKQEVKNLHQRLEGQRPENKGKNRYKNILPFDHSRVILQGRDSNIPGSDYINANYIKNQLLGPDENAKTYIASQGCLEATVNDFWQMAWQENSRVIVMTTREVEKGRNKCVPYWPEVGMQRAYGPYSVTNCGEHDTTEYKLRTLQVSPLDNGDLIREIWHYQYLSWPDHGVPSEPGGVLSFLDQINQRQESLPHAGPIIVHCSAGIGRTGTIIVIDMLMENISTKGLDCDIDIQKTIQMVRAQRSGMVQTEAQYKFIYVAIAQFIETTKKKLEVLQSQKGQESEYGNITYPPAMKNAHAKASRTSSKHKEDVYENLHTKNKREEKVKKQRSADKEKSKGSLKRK
Description: The SHP1-activating effects of the synthetic compounds were examined by the 6,8-difluoro-4-methylumbelliferyl phosphate (DiFMUP) assay.
The proteins SHP1 and SHP2, containing a GST-tag, were expressed in E. coli. 6,8-Difluoro-4-methylumbelliferyl phosphate (DiFMUP) was used as the fluorogenic substrate. Fluorescence data were collected by the Envision (PerkinElmer, Waltham, MA, USA) plate reader, using excitation and emission wavelengths of 358 and 455 nm, respectively. A sigmoidal dose-response curve was fitted to the data, and the EC50 values were calculated using GraphPad Prism. In the data processing, the fitting and curves were calculated using nonlinear regression, and the fold value of the compound was calculated using the software GraphPad Prism 8. The folds were obtained according to the equation: Y = Bottom + (Top-Bottom)/(1 + 10^((LogEC50-X) × HillSlope)). The data represent mean values ± standard error of the mean (SEM) of eight-point experiments, each performed in triplicates from three independent experiments.

## C[C@H](CCCO)[C@H]1CCC2C3CC=C4C(C)(C)C(NCCCO)CC[C@]4(C)C3CC[C@@]21C (stereo partly drawn) [Compound 5ac]
other
  melting point: 183.5 to 186.8 °C
[1]
  EC50: 30.7 ± 3.8 µM

## C[C@H](CCCO)[C@H]1CCC2C3C(O)C=C4C(C)(C)C(N)CC[C@]4(C)C3CC[C@@]21C (stereo partly drawn) [Compound 5ai]
other
  melting point: 171.4 to 173.2 °C
[1]
  EC50: > 50 µM

## CNC(=O)CC[C@@H](C)[C@H]1CCC2C3CC=C4C(C)(C)C(N)CC[C@]4(C)C3CC[C@@]21C (stereo partly drawn) [Compound 5al]
other
  melting point: > 300 °C
[1]
  EC50: 40.5 ± 6.58 µM
  Maximum Activation Fold: 6.42 ± 0.28 fold

## C=CCC(O)CC[C@@H](C)[C@H]1CCC2C3CC=C4C(C)(C)C(N)CC[C@]4(C)C3CC[C@@]21C (stereo partly drawn) [Compound 5ar, (7R)-7-((10R,13R,17R)-3-amino-4,4,10,13-tetramethyl-tetradecahydro-1H-cyclopenta[a]phenanthren-17-yl)oct-1-en-4-ol]
other
  melting point: 250.4 to 252.6 °C
[1]
  EC50: 12.9 ± 0.75 µM
  Maximum Activation Fold: 6.94 ± 0.17 fold

## C[C@H](CCCO)[C@H]1CCC2C3CC=C4C(C)(C)C(NCCCCl)CC[C@]4(C)C3CC[C@@]21C (stereo partly drawn) [Compound 5ad]
other
  melting point: 162.7 to 165.5 °C
[1]
  EC50: 47.34 ± 0.34 µM

## C[C@H](CCC(C)(C)O)[C@H]1CCC2C3CC=C4C(C)(C)C(N)CC[C@]4(C)C3CC[C@@]21C (stereo partly drawn) [Compound 5as, (5R)-5-((10R,13R,17R)-3-amino-4,4,10,13-tetramethyl-tetradecahydro-1H-cyclopenta[a]phenanthren-17-yl)-2-methylhexan-2-ol]
other
  melting point: 215.2 to 217.6 °C
[1]
  EC50: 22 ± 3.84 µM
  Maximum Activation Fold: 5.73 ± 0.32 fold

## CCC(O)(CC)CC[C@@H](C)[C@H]1CCC2C3CC=C4C(C)(C)C(N)CC[C@]4(C)C3CC[C@@]21C (stereo partly drawn) [Compound 5at]
other
  melting point: > 300 °C
[1]
  EC50: 12.9 ± 0.3 µM
  Maximum Activation Fold: 6.50 ± 0.12 fold

## CCCNC1CC[C@@]2(C)C(=CCC3C2CC[C@@]2(C)C3CC[C@@H]2[C@H](C)CCCO)C1(C)C (stereo partly drawn) [Compound 5ae, (4R)-4-((10R,13R,17R)-4,4,10,13-tetramethyl-3-(propylamino)-tetradecahydro-1H-cyclopenta[a]phenanthren-17-yl)pentan-1-ol]
other
  melting point: 147.5 to 150.4 °C
[1]
  EC50: > 50 µM

## C=CCC(O)(CC=C)CC[C@@H](C)[C@H]1CCC2C3CC=C4C(C)(C)C(N)CC[C@]4(C)C3CC[C@@]21C (stereo partly drawn) [Compound 5av, (7R)-4-allyl-7-((10R,13R,17R)-3-amino-4,4,10,13-tetramethyl-tetradecahydro-1H-cyclopenta[a]phenanthren-17-yl)oct-1-en-4-ol]
other
  melting point: 235.5 to 237.4 °C
[1]
  EC50: 35.8 ± 1.92 µM
  Maximum Activation Fold: 5.90 ± 0.42 fold

## CC(C)C(O)CC[C@@H](C)[C@H]1CCC2C3CC=C4C(C)(C)C(N)CC[C@]4(C)C3CC[C@@]21C (stereo partly drawn) [Compound 5aq, (6R)-6-((10R,13R,17R)-3-amino-4,4,10,13-tetramethyl-tetradecahydro-1H-cyclopenta[a]phenanthren-17-yl)-2-methylheptan-3-ol]
other
  melting point: > 300 °C
[1]
  EC50: 22.1 ± 3.73 µM
  Maximum Activation Fold: 6.32 ± 0.34 fold

## C[C@H](CCCO)[C@H]1CCC2C3C(N)C=C4C(C)(C)C(N)CC[C@]4(C)C3CC[C@@]21C (stereo partly drawn) [Compound 5aj]
other
  melting point: 178.7 to 180.2 °C
[1]
  EC50: > 50 µM

## CCCC(O)(CCC)CC[C@@H](C)[C@H]1CCC2C3CC=C4C(C)(C)C(N)CC[C@]4(C)C3CC[C@@]21C (stereo partly drawn) [Compound 5au]
other
  melting point: 242.6 to 244.9 °C
[1]
  EC50: 24.4 ± 3.61 µM
  Maximum Activation Fold: 6.42 ± 0.28 fold

## C[C@H](CCCOc1ccc(NC(=O)Nc2ccc(Cl)c(C(F)(F)F)c2)cc1)[C@H]1CCC2C3CC=C4C(C)(C)C(N)CC[C@]4(C)C3CC[C@@]21C (stereo partly drawn) [Compound 5ay]
other
  melting point: 192.3 to 194.5 °C
[1]
  EC50: 2.05 ± 0.14 µM
  Maximum Activation Fold: 5.54 ± 0.24 fold

## CC(O)CC[C@@H](C)[C@H]1CCC2C3CC=C4C(C)(C)C(N)CC[C@]4(C)C3CC[C@@]21C (stereo partly drawn) [Compound 5an]
other
  melting point: > 300 °C
[1]
  EC50: 17.6 ± 1.75 µM
  Maximum Activation Fold: 6.33 ± 0.01 fold

## C[C@H](CCCO)[C@H]1CCC2C3C(=O)C=C4C(C)(C)C(N)CC[C@]4(C)C3CC[C@@]21C (stereo partly drawn) [Compound 5ag, (10R,13R,17R)-3-amino-17-((R)-5-hydroxypentan-2-yl)-4,4,10,13-tetramethyl-tetradecahydro-7H-cyclopenta[a]phenanthren-7-one]
other
  melting point: 151.3 to 153.7 °C
[1]
  EC50: 33.8 ± 2.93 µM
  Maximum Activation Fold: 1.84 ± 0.11 fold

## CCC(O)CC[C@@H](C)[C@H]1CCC2C3CC=C4C(C)(C)C(N)CC[C@]4(C)C3CC[C@@]21C (stereo partly drawn) [Compound 5ao]
other
  melting point: > 300 °C
[1]
  EC50: 15.5 ± 4.38 µM
  Maximum Activation Fold: 6.59 ± 0.48 fold

## C[C@H](CCCO)[C@H]1CCC2C3CC=C4C(C)(C)C(NCCO)CC[C@]4(C)C3CC[C@@]21C (stereo partly drawn) [Compound 5ab]
other
  melting point: 184.3 to 187.5 °C
[1]
  EC50: 39.1 ± 3.7 µM

## CCCNCCC[C@@H](C)[C@H]1CCC2C3CC=C4C(C)(C)C(N)CC[C@]4(C)C3CC[C@@]21C (stereo partly drawn) [Compound 5am, (10R,13R,17R)-4,4,10,13-tetramethyl-17-((R)-5-(propylamino)pentan-2-yl)-tetradecahydro-1H-cyclopenta[a]phenanthren-3-amine]
other
  melting point: > 300 °C
[1]
  EC50: > 50 µM

## C[C@H](CCCO)[C@H]1CCC2C3C(=NO)C=C4C(C)(C)C(N)CC[C@]4(C)C3CC[C@@]21C (stereo partly drawn) [Compound 5ah, (10R,13R,17R)-3-amino-17-((R)-5-hydroxypentan-2-yl)-4,4,10,13-tetramethyl-tetradecahydro-7H-cyclopenta[a]phenanthren-7-oxime]
other
  melting point: 218.3 to 219.9 °C
[1]
  EC50: 34.4 ± 2.47 µM
  Maximum Activation Fold: 2.13 ± 0.28 fold

## C[C@H](CCCO)[C@H]1CCC2C3CC=C4C(C)(C)C(N)CC[C@]4(C)C3CC[C@@]21C (stereo partly drawn) [Compound 5aa]
other
  melting point: 163.5 to 166.3 °C
[1]
  EC50: 19.2 ± 4.59 µM
  Maximum Activation Fold: 6.03 ± 0.87 fold

## C[C@H](CO)[C@H]1CCC2C3CC=C4C(C)(C)C(N)CC[C@]4(C)C3CC[C@@]21C (stereo partly drawn) [Compound 5aw]
other
  melting point: 170.6 to 173.8 °C
[1]
  EC50: 35.5 ± 3.15 µM

## C[C@H](CCCO)[C@H]1CCC2C3CC=C4C(C)(C)C(NC(=O)Nc5ccc(Cl)c(C(F)(F)F)c5)CC[C@]4(C)C3CC[C@@]21C (stereo partly drawn) [Compound 5ax, 1-(4-chloro-3-(trifluoromethyl)phenyl)-3-((10R,13R,17R)-17-((R)-5-hydroxypentan-2-yl)-4,4,10,13-tetramethyl-2,3,4,7,8,9,10,11,12,13,14,15,16,17-tetradecahydro-1H-cyclopenta[a]phenanthren-3-yl)urea]
other
  melting point: 221.1 to 223.7 °C
[1]
  SHP1 activity (in words): no activity
  EC50: > 50 µM

## C[C@H](CCCO)[C@H]1CCC2C3=CC=C4C(C)(C)C(N)CC[C@]4(C)C3CC[C@@]21C (stereo partly drawn) [Compound 5ak, (4R)-4-((10R,13R,17R)-3-amino-4,4,10,13-tetramethyl-2,3,4,9,10,11,12,13,14,15,16,17-dodecahydro-1H-cyclopenta[a]phenanthren-17-yl)pentan-1-ol]
other
  melting point: 179.5 to 181.3 °C
[1]
  EC50: 20 ± 3.34 µM
  Maximum Activation Fold: 7.74 fold and 7.74 ± 0.20 fold

## CCCC(O)CC[C@@H](C)[C@H]1CCC2C3CC=C4C(C)(C)C(N)CC[C@]4(C)C3CC[C@@]21C (stereo partly drawn) [Compound 5ap]
other
  melting point: > 300 °C
[1]
  EC50: 38.1 ± 3.76 µM
  Maximum Activation Fold: 6.65 ± 0.35 fold

## C[C@H](CCCO)[C@H]1CCC2C3CC=C4C(C)(C)C(N5CCC5)CC[C@]4(C)C3CC[C@@]21C (stereo partly drawn) [Compound 5af]
other
  melting point: 174.9 to 177.6 °C
[1]
  EC50: > 50 µM
